Key:
[1] = The drug is tested on Z-018 corresponding to pig gut metagenome with ENA study accession number: PRJEB37062 and ENA sample accession number: ERS12561817 for biotransformation under anaerobic condition. The drug concentrations were measured over 9 timepoints collected between 0 and 24 hours of incubation by liquid-chromatography-coupled mass spectrometry (LC–MS); settings: 2 µM
[2] = The drug is tested on WLS-039 corresponding to human gut metagenome with ENA study accession number: PRJEB37062 and ENA sample accession number: ERS12561746 for biotransformation under anaerobic condition. The drug concentrations were measured over 9 timepoints collected between 0 and 24 hours of incubation by liquid-chromatography-coupled mass spectrometry (LC–MS); settings: 2 µM
[3] = The drug is tested on Z-029 corresponding to rat gut metagenome with ENA study accession number: PRJEB37062 and ENA sample accession number: ERS12561828 for biotransformation under anaerobic condition. The drug concentrations were measured over 9 timepoints collected between 0 and 24 hours of incubation by liquid-chromatography-coupled mass spectrometry (LC–MS); settings: 2 µM
[4] = The drug is tested on WLS-350 corresponding to human gut metagenome with ENA study accession number: PRJEB37062 and ENA sample accession number: ERS12561789 for biotransformation under anaerobic condition. The drug concentrations were measured over 9 timepoints collected between 0 and 24 hours of incubation by liquid-chromatography-coupled mass spectrometry (LC–MS); settings: 2 µM
[5] = human gut metagenome, 24 h, 2 µM
[6] = The drug is tested on WLS-090 corresponding to human gut metagenome with ENA study accession number: PRJEB37062 and ENA sample accession number: ERS12561753 for biotransformation under anaerobic condition. The drug concentrations were measured over 9 timepoints collected between 0 and 24 hours of incubation by liquid-chromatography-coupled mass spectrometry (LC–MS); settings: 2 µM
[7] = The drug is tested on Z-022 corresponding to mouse gut metagenome with ENA study accession number: PRJEB37062 and ENA sample accession number: ERS12561821 for biotransformation under anaerobic condition. The drug concentrations were measured over 9 timepoints collected between 0 and 24 hours of incubation by liquid-chromatography-coupled mass spectrometry (LC–MS); settings: 2 µM
[8] = human gut metagenome, 24 h, 2 µM; remark: listed apart in the source
[9] = human gut metagenome, 24 h, 2 µM; remark: listed apart in the source
[10] = human gut metagenome, 24 h, 2 µM; remark: listed apart in the source
[11] = The drug is tested on WLS-027 corresponding to human gut metagenome with ENA study accession number: PRJEB37062 and ENA sample accession number: ERS12561744 for biotransformation under anaerobic condition. The drug concentrations were measured over 9 timepoints collected between 0 and 24 hours of incubation by liquid-chromatography-coupled mass spectrometry (LC–MS); settings: 2 µM
[12] = human gut metagenome, 24 h, 2 µM; remark: listed apart in the source
[13] = human gut metagenome, 24 h, 2 µM; remark: listed apart in the source
[14] = human gut metagenome, 24 h, 2 µM; remark: listed apart in the source
[15] = human gut metagenome, 24 h, 2 µM; remark: listed apart in the source
[16] = The drug is tested on WLS-010 corresponding to human gut metagenome with ENA study accession number: PRJEB37062 and ENA sample accession number: ERS12561743 for biotransformation under anaerobic condition. The drug concentrations were measured over 9 timepoints collected between 0 and 24 hours of incubation by liquid-chromatography-coupled mass spectrometry (LC–MS); settings: 2 µM
[17] = The drug is tested on Z-014 corresponding to rat gut metagenome with ENA study accession number: PRJEB37062 and ENA sample accession number: ERS12561814 for biotransformation under anaerobic condition. The drug concentrations were measured over 9 timepoints collected between 0 and 24 hours of incubation by liquid-chromatography-coupled mass spectrometry (LC–MS); settings: 2 µM
[18] = The drug is tested on WLS-038 corresponding to human gut metagenome with ENA study accession number: PRJEB37062 and ENA sample accession number: ERS12561745 for biotransformation under anaerobic condition. The drug concentrations were measured over 9 timepoints collected between 0 and 24 hours of incubation by liquid-chromatography-coupled mass spectrometry (LC–MS); settings: 2 µM
[19] = human gut metagenome, 24 h, 2 µM; remark: listed apart in the source
[20] = The drug is tested on Z-010 corresponding to metagenome with ENA study accession number: PRJEB37062 and ENA sample accession number: ERS12561810 for biotransformation under anaerobic condition. The drug concentrations were measured over 9 timepoints collected between 0 and 24 hours of incubation by liquid-chromatography-coupled mass spectrometry (LC–MS); settings: 2 µM
Note: call rule not given here.

CCC(COC(=O)c1cc(OC)c(OC)c(OC)c1)(c1ccccc1)N(C)C.O=C(O)/C=C\C(=O)O (stereo not given)
Bacterial Biotransformation [1]: Compound metabolized | Bacterial Biotransformation [2]: Compound NOT metabolized | Bacterial Biotransformation [3]: Compound NOT metabolized | Bacterial Biotransformation [4]: Compound NOT metabolized | Bacterial Biotransformation [5]: Compound metabolized | Bacterial Biotransformation [6]: Compound NOT metabolized | Bacterial Biotransformation [7]: Compound metabolized | Bacterial Biotransformation [8]: Compound metabolized | Bacterial Biotransformation [9]: Compound NOT metabolized | Bacterial Biotransformation [10]: Compound NOT metabolized | Bacterial Biotransformation [11]: Compound metabolized | Bacterial Biotransformation [12]: Compound NOT metabolized | Bacterial Biotransformation [13]: Compound NOT metabolized | Bacterial Biotransformation [14]: Compound NOT metabolized | Bacterial Biotransformation [15]: Compound NOT metabolized | Bacterial Biotransformation [16]: Compound NOT metabolized | Bacterial Biotransformation [17]: Compound NOT metabolized | Bacterial Biotransformation [18]: Compound NOT metabolized | Bacterial Biotransformation [19]: Compound NOT metabolized

COc1ccc(CCN(C)CCCC(C#N)(c2ccc(OC)c(OC)c2)C(C)C)cc1OC (stereo not given)
Bacterial Biotransformation [1]: Compound metabolized | Bacterial Biotransformation [2]: Compound metabolized | Bacterial Biotransformation [3]: Compound NOT metabolized | Bacterial Biotransformation [4]: Compound metabolized | Bacterial Biotransformation [5]: Compound NOT metabolized | Bacterial Biotransformation [6]: Compound metabolized | Bacterial Biotransformation [7]: Compound NOT metabolized | Bacterial Biotransformation [8]: Compound metabolized | Bacterial Biotransformation [9]: Compound metabolized | Bacterial Biotransformation [10]: Compound NOT metabolized | Bacterial Biotransformation [11]: Compound metabolized | Bacterial Biotransformation [12]: Compound metabolized | Bacterial Biotransformation [13]: Compound metabolized | Bacterial Biotransformation [14]: Compound metabolized | Bacterial Biotransformation [15]: Compound NOT metabolized | Bacterial Biotransformation [16]: Compound metabolized | Bacterial Biotransformation [17]: Compound NOT metabolized | Bacterial Biotransformation [18]: Compound NOT metabolized | Bacterial Biotransformation [19]: Compound NOT metabolized

CCCCCCOC(=O)/N=C(/N)c1ccc(NCc2nc3cc(C(=O)N(CCC(=O)OCC)c4ccccn4)ccc3n2C)cc1.CS(=O)(=O)O [DABIGATRAN ETEXILATE MESYLATE]
Bacterial Biotransformation [20]: Compound NOT metabolized | Bacterial Biotransformation [1]: Compound NOT metabolized | Bacterial Biotransformation [3]: Compound NOT metabolized | Bacterial Biotransformation [4]: Compound NOT metabolized | Bacterial Biotransformation [7]: Compound NOT metabolized | Bacterial Biotransformation [13]: Compound metabolized | Bacterial Biotransformation [14]: Compound NOT metabolized | Bacterial Biotransformation [15]: Compound NOT metabolized | Bacterial Biotransformation [17]: Compound NOT metabolized

O=c1[nH]c2ccccc2n1CCCN1CCC(n2c(=O)[nH]c3cc(Cl)ccc32)CC1 [DOMPERIDONE]
Bacterial Biotransformation [20]: Compound NOT metabolized | Bacterial Biotransformation [1]: Compound NOT metabolized | Bacterial Biotransformation [2]: Compound NOT metabolized | Bacterial Biotransformation [3]: Compound NOT metabolized | Bacterial Biotransformation [4]: Compound NOT metabolized | Bacterial Biotransformation [5]: Compound NOT metabolized | Bacterial Biotransformation [6]: Compound NOT metabolized | Bacterial Biotransformation [7]: Compound NOT metabolized | Bacterial Biotransformation [8]: Compound NOT metabolized | Bacterial Biotransformation [11]: Compound NOT metabolized | Bacterial Biotransformation [12]: Compound NOT metabolized | Bacterial Biotransformation [13]: Compound NOT metabolized | Bacterial Biotransformation [14]: Compound NOT metabolized | Bacterial Biotransformation [15]: Compound NOT metabolized | Bacterial Biotransformation [17]: Compound NOT metabolized | Bacterial Biotransformation [18]: Compound NOT metabolized

c1ccc([C@H]2CN3CCSC3=N2)cc1 [LEVAMISOLE]
Bacterial Biotransformation [1]: Compound metabolized | Bacterial Biotransformation [2]: Compound metabolized | Bacterial Biotransformation [3]: Compound NOT metabolized | Bacterial Biotransformation [4]: Compound metabolized | Bacterial Biotransformation [5]: Compound metabolized | Bacterial Biotransformation [7]: Compound metabolized | Bacterial Biotransformation [8]: Compound metabolized | Bacterial Biotransformation [9]: Compound metabolized | Bacterial Biotransformation [10]: Compound metabolized | Bacterial Biotransformation [11]: Compound metabolized | Bacterial Biotransformation [12]: Compound metabolized | Bacterial Biotransformation [14]: Compound metabolized | Bacterial Biotransformation [15]: Compound metabolized | Bacterial Biotransformation [17]: Compound NOT metabolized | Bacterial Biotransformation [18]: Compound metabolized | Bacterial Biotransformation [19]: Compound metabolized

C#C[C@]1(O)CC[C@H]2[C@@H]3CCC4=CC(=O)CC[C@@H]4[C@H]3CC[C@@]21CC [LEVONORGESTREL]
Bacterial Biotransformation [1]: Compound metabolized | Bacterial Biotransformation [2]: Compound metabolized | Bacterial Biotransformation [3]: Compound NOT metabolized | Bacterial Biotransformation [4]: Compound metabolized | Bacterial Biotransformation [5]: Compound NOT metabolized | Bacterial Biotransformation [6]: Compound metabolized | Bacterial Biotransformation [7]: Compound metabolized | Bacterial Biotransformation [8]: Compound metabolized | Bacterial Biotransformation [9]: Compound metabolized | Bacterial Biotransformation [10]: Compound NOT metabolized | Bacterial Biotransformation [11]: Compound metabolized | Bacterial Biotransformation [12]: Compound metabolized | Bacterial Biotransformation [13]: Compound metabolized | Bacterial Biotransformation [14]: Compound metabolized | Bacterial Biotransformation [15]: Compound metabolized | Bacterial Biotransformation [17]: Compound metabolized | Bacterial Biotransformation [19]: Compound metabolized

C=CCN1CC[C@]23c4c5ccc(O)c4O[C@H]2C(=O)CC[C@@]3(O)[C@H]1C5 [NALOXONE]
Bacterial Biotransformation [20]: Compound NOT metabolized | Bacterial Biotransformation [1]: Compound NOT metabolized | Bacterial Biotransformation [2]: Compound NOT metabolized | Bacterial Biotransformation [3]: Compound NOT metabolized | Bacterial Biotransformation [4]: Compound NOT metabolized | Bacterial Biotransformation [5]: Compound NOT metabolized | Bacterial Biotransformation [6]: Compound NOT metabolized | Bacterial Biotransformation [7]: Compound NOT metabolized | Bacterial Biotransformation [8]: Compound NOT metabolized | Bacterial Biotransformation [9]: Compound NOT metabolized | Bacterial Biotransformation [10]: Compound NOT metabolized | Bacterial Biotransformation [11]: Compound NOT metabolized | Bacterial Biotransformation [12]: Compound NOT metabolized | Bacterial Biotransformation [13]: Compound NOT metabolized | Bacterial Biotransformation [14]: Compound NOT metabolized | Bacterial Biotransformation [15]: Compound NOT metabolized | Bacterial Biotransformation [17]: Compound NOT metabolized | Bacterial Biotransformation [18]: Compound NOT metabolized | Bacterial Biotransformation [19]: Compound NOT metabolized
